In patent publication US12673954B2 (BRISTOL-MYERS SQUIBB COMPANY, priority 2021, dated 2026):
Read-outs that look alike come from different tables or passages of the source.

Legend:
[1] = system: IRF pathway, THP1-Dual™ cells; test: STING reporter assay in THP1-Dual cells, IRF pathway (Lucia luciferase, QUANTI-Luc); type: cell-based, human; details: THP1-Dual cells, 10% human plasma, 20 hours, Lucia luciferase, 100% activation = 100 μM cGAMP, read-out: IRF (EC50 μM)
Method in brief: (§1)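 THP-1-derived dual-reporter cells treated with serially diluted compounds (final top concentration 100 μM) for 20 h at 37° C. NF-κB read as SEAP via QUANTI-Blue at OD620; IRF read as Lucia luminescence via QUANTI-Luc after 5 min. 100% activation set by 100 μM cGAMP, baseline by DMSO.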

[2] = system: NF-κB pathway, THP1-Dual™ cells; test: STING reporter assay in THP1-Dual cells, NF-κB pathway (SEAP, QUANTI-Blue); type: cell-based, human; details: THP1-Dual cells, 10% human plasma, 20 hours, SEAP, 100% activation = 100 μM cGAMP, read-out: NFkB (EC50 μM)
Method in brief: as §1

Compound | EC50 ([1]; Homo sapiens, THP1-Dual, 20 h) [µM] | EC50 ([2]; Homo sapiens, THP1-Dual, 20 h) [µM] | EC50 [1] [µM] | EC50 [2] [µM]
Cc1cc(C(N)=O)c2oc(CNC(=O)c3cnn4cccnc34)cc2c1 [EXAMPLE 404, N-((7-Carbamoyl-5-methylbenzofuran-2-yl)methyl)pyrazolo[1,5-a]pyrimidine-3-carboxamide] | > 100 | 83 |  | 
CC(OC(=O)c1cc(Br)cc2cc(CNC(=O)c3cnn4cccnc34)oc12)C(F)(F)F (single isomer, unassigned) [EXAMPLE 341, 1,1,1-Trifluoropropan-2-yl 5-bromo-2-((pyrazolo[1,5-a]pyrimidine-3-carboxamido)methyl)benzofuran-7-carboxylate] |  |  | 1.6 | 2.5
COC(=O)c1ccc(C)c2cc(CN3Cc4ccncc4C3=O)oc12 [EXAMPLE 30, Methyl 4-methyl-2-((3-oxo-1,3-dihydro-2H-pyrrolo[3,4-c]pyridin-2-yl)methyl)benzofuran-7-carboxylate] | 27 | 31 |  | 
O=C(O)c1cc(F)cc2c(Cl)c(CNC(=O)c3cnn4cccnc34)oc12 [EXAMPLE 172, 3-chloro-5-fluoro-2-((pyrazolo[1,5-a]pyrimidine-3-carboxamido)methyl)benzofuran-7-carboxylic acid] | 62 | 74 |  | 
O=C(SCC(F)(F)F)c1cc(F)cc2cc(CNC(=O)c3cnn4cccnc34)oc12 [EXAMPLE 388, S-(2,2,2-Trifluoroethyl) 5-fluoro-2-((pyrazolo[1,5-a]pyrimidine-3-carboxamido)methyl)benzofuran-7-carbothioate] | 1.5 | 1.4 |  | 
COC(=O)c1cccc2cc(CN3CCc4ccncc4C3=O)oc12 [EXAMPLE 5, Methyl 2-((1-oxo-3,4-dihydro-2,7-naphthyridin-2(1H)-yl)methyl)benzofuran-7-carboxylate] | 5.7 | 6.3 |  | 
CC(C)OC(=O)c1cc(F)cc2cc(CNC(=O)c3cnn4cccnc34)oc12 [EXAMPLE 232, Isopropyl 5-fluoro-2-((pyrazolo[1,5-a]pyrimidine-3-carboxamido)methyl)benzofuran-7-carboxylate] | 1 | 0.92 |  | 
[2H]C([2H])([2H])OC(=O)c1cccc2cc(CN3CCc4ccncc4C3=O)oc12 [EXAMPLE 353, Methyl-D3 2-((1-oxo-3,4-dihydro-2,7-naphthyridin-2(1H)-yl)methyl)benzofuran-7-carboxylate] | 10 | 18 |  | 
COC(=O)c1cccc2cc(CNC(=O)c3cnn4cc(C)cnc34)oc12 [EXAMPLE 11, Methyl 2-((6-methylpyrazolo[1,5-a]pyrimidine-3-carboxamido)methyl) benzofuran-7-carboxylate] |  |  | 6.1 | 6.7
C=Cc1c(CNC(=O)c2cnn3cccnc23)oc2c(C(=O)OC)cc(C)cc12 [EXAMPLE 124, Methyl 5-methyl-2-((pyrazolo[1,5-a]pyrimidine-3-carboxamido)methyl)-3-vinylbenzofuran-7-carboxylate] | 5.7 | 6.7 |  | 
Cc1cc(C(=O)O)c2oc(C(C)NC(=O)c3cnn4cccnc34)cc2c1 (racemic) [EXAMPLE 161, 5-Methyl-2-(1-(pyrazolo[1,5-a]pyrimidine-3-carboxamido)ethyl)benzofuran-7-carboxylic acid (racemic)] | 108 | 138 |  | 
CN1CCN(CCOC(=O)c2cc(Cl)cc3cc(CNC(=O)c4cnn5cccnc45)oc23)CC1 [EXAMPLE 257, 2-(4-Methylpiperazin-1-yl)ethyl 5-chloro-2-((pyrazolo[1,5-a]pyrimidine-3-carboxamido)methyl)benzofuran-7-carboxylate] | 28 | 11 |  | 
COC(=O)c1cccc2cc(CNC(=O)c3cnn4cccnc34)oc12 [EXAMPLE 9, Methyl 2-((pyrazolo[1,5-a]pyrimidine-3-carboxamido)methyl) benzofuran-7-carboxylate] |  |  | 2.1 | 1.8
O=C(OC(CF)CF)c1cc(Cl)cc2cc(CNC(=O)c3cnn4cccnc34)oc12 [EXAMPLE 246, 1,3-Difluoropropan-2-yl 5-chloro-2-((pyrazolo[1,5-a]pyrimidine-3-carboxamido)methyl)benzofuran-7-carboxylate] | 1.1 | 1 |  | 
COC(=O)c1cc(Cl)cc2cc(CNC(=O)c3cnccn3)oc12 [Example 58, Methyl 5-chloro-2-((pyrazine-2-carboxamido)methyl) benzofuran-7-carboxylate] |  |  | 2.7 | 2.9
COc1cc(C(=O)OC(OC)C(F)(F)F)c2oc(CNC(=O)c3cnn4cccnc34)cc2c1 (racemic) [EXAMPLE 281, 2,2,2-Trifluoro-1-methoxyethyl 5-methoxy-2-((pyrazolo[1,5-a]pyrimidine-3-carboxamido)methyl)benzofuran-7-carboxylate] | 11 | 14 |  | 
Cc1cc(CC(=O)OCC(F)(F)F)c2oc(CNC(=O)c3cnn4cccnc34)cc2c1 [EXAMPLE 278, 2,2,2-Trifluoroethyl 2-(5-methyl-2-((pyrazolo[1,5-a]pyrimidine-3-carboxamido)methyl)benzofuran-7-yl)acetate] | 6.6 | 5.5 |  | 
COC(=O)c1cc(C)cc2c(Cl)c(C(C)NC(=O)c3cnn4cccnc34)oc12 (single isomer, unassigned) [EXAMPLE 120, Methyl-3-chloro-5-methyl-2-(1-(pyrazolo[1,5-a]pyrimidine-3-carboxamido)ethyl)benzofuran-7-carboxylate] | 2.7 | 3.2 |  | 
O=C(OC1CC(c2ccc(F)cc2)C1)c1cc(Cl)cc2cc(CNC(=O)c3cnn4cccnc34)oc12 (single isomer, unassigned) [EXAMPLE 334, 3-(4-Fluorophenyl)cyclobutyl 5-chloro-2-((pyrazolo[1,5-a]pyrimidine-3-carboxamido)methyl)benzofuran-7-carboxylate] |  |  | 16 | 23

The remaining lines, values ahead:

EC50 ([1]; Homo sapiens, THP1-Dual, 20 h) [µM] | EC50 ([2]; Homo sapiens, THP1-Dual, 20 h) [µM] | EC50 [1] [µM] | EC50 [2] [µM] | Compound
42 | 50 |  |  | Cc1cc(C(=O)O)c2oc(CNC(=O)c3cncc4cccnc34)c(Cl)c2c1 [EXAMPLE 178, 2-((1,6-naphthyridine-8-carboxamido)methyl)-3-chloro-5-methylbenzofuran-7-carboxylic acid]
3.1 | 3 |  |  | COC(OC(=O)c1cc(F)cc2cc(CNC(=O)c3cnc4cccnn34)oc12)C(F)(F)F (single isomer, unassigned) [EXAMPLE 313, 2,2,2-Trifluoro-1-methoxyethyl 5-fluoro-2-((imidazo[1,2-b]pyridazine-3-carboxamido)methyl)benzofuran-7-carboxylate]
 |  | 8 | 9.8 | COC(=O)c1cc(Cl)cc2cc(CNC(=O)c3cnc4cccnn34)oc12 [Example 52, Methyl 5-chloro-2-((imidazo[1,2-b]pyridazine-3-carboxamido)methyl) benzofuran-7-carboxylate]
2.4 | 2.4 |  |  | CSC(=O)c1cc(Cl)cc2c(Cl)c([C@H](C)NC(=O)c3cnn4cccnc34)oc12 [EXAMPLE 402]
0.96 | 1.3 |  |  | O=C(OCC(F)(F)F)c1ccc(F)c2cc(CNC(=O)c3cnn4cccnc34)oc12 [EXAMPLE 355, 2,2,2-Trifluoroethyl 4-fluoro-2-((pyrazolo[1,5-a]pyrimidine-3-carboxamido)methyl)benzofuran-7-carboxylate]
8.2 | 9.3 |  |  | O=C(OCC(F)F)c1cccc2cc(CN3CCc4ccncc4C3=O)oc12 [EXAMPLE 214, 2,2-Difluoroethyl 2-((1-oxo-3,4-dihydro-2,7-naphthyridin-2(1H)-yl)methyl)benzofuran-7-carboxylate]
30 | 37 |  |  | Cc1cc(C(=O)NO)c2oc(CNC(=O)c3cnn4cccnc34)c(Cl)c2c1 [EXAMPLE 407, N-((3-chloro-7-(hydroxycarbamoyl)-5-methylbenzofuran-2-yl)methyl)pyrazolo[1,5-a]pyrimidine-3-carboxamide]
4.3 | 5.9 |  |  | COC(=O)c1cc(C)cc2c(C(F)(F)F)c(CNC(=O)c3cnn4cccnc34)oc12 [EXAMPLE 123, Methyl 5-methyl-2-((pyrazolo[1,5-a]pyrimidine-3-carboxamido)methyl)-3-(trifluoromethyl)benzofuran-7-carboxylate]
0.64 | 0.68 |  |  | COC(=O)c1cc(Cl)cc2cc(CNC(=O)c3cnn4cccnc34)oc12 [Example 48, Methyl 5-chloro-2-((pyrazolo[1,5-a]pyrimidine-3-carboxamido)methyl)benzofuran-7-carboxylate]
3.6 | 4.1 |  |  | COC(=O)c1cc(F)cc2cc(CN3CCc4ccncc4C3=O)oc12 [EXAMPLE 36, Methyl 5-fluoro-2-((1-oxo-3,4-dihydro-2,7-naphthyridin-2(1H)-yl)methyl)benzofuran-7-carboxylate]
1.7 | 2 |  |  | O=C(OC1COC1)c1cc(F)cc2cc(CNC(=O)c3cnn4cccnc34)oc12 [EXAMPLE 233, Oxetan-3-yl 5-fluoro-2-((pyrazolo[1,5-a]pyrimidine-3-carboxamido)methyl)benzofuran-7-carboxylate]
63 | 52 |  |  | Cc1cc(C(=O)O)c2oc(CNC(=O)c3cnn4cccnc34)cc2c1 [EXAMPLE 158, 5-methyl-2-((pyrazolo[1,5-a]pyrimidine-3-carboxamido)methyl)benzofuran-7-carboxylic acid]
